Data on one substance can be found in patent US9011853B2, “B7-H4 fusion proteins and methods of use thereof” (Amplimmune, Inc., priority 2009, dated 2015).

For one assay, the system named is DBA/1J mice. As to the kind of experiment: CIA therapeutic model, arthritis score. The note with it: 300 μg IP 3 times a week for 4 weeks from CII rechallenge (day 21); days 38 and beyond; vs vehicle (FIG. 5). The assay is classed as in vivo, mouse. The procedure:
FIG. 4 outlines a brief experimental design of the CIA therapeutic study. DBA/1J mice were first immunized with chicken CII emulsified in CFA. Twenty one days later, the mice were rechallenged with CII emulsified in IFA and randomized into 2 groups. Group 1 (n=10) were IP injected with 300 μg of B7-H4-Ig, 3 times a week for 4 weeks. Group 2 (n=10) were injected with vehicle. Mouse paws/joints were monitored and scored 3 times a week.

In assay [1] the test system is TNFα, IL6, and chemokine (MCP-1). As to the kind of experiment: Plasma proinflammatory molecules in CIA mice, BD Cytometric Bead Array. The class given is in vivo, mouse. The text has this:
Plasma was collected on day 33 from mice treated as described in Example 3 and analyzed for proinflammatory molecules, e.g. TNFα, IL6, and chemokine (MCP-1) using the BD™ Cytometric Bead Array (CBA) Flex Sets.

A further assay deals with CTLA4 KD/NOD mice. Briefly: Autoimmune diabetes in CTLA4 KD/NOD mice. The assay is classed as in vivo, mouse. The note with it: 15 mg/kg i.p. 3 times per week for 4 weeks from age 2 weeks; mice 24 weeks old (22 weeks post treatment) (FIG. 49). The procedure:
Both female and male CTLA4 KD/NOD mice (Chen et al., PNAS, 103(44):16400-16405 (2006)) at age of 2 weeks were randomly assigned into experimental groups: vehicle (11 mice), and B7-H4-Ig (12 mice). Mice were treated with B7-H4-Ig 3 times per week for 4 weeks (15 mg/kg, per i.p. injection), and monitored 3 times per week for glucose content in the urine first with Diastix. […] Diabetes was determined when blood glucose reached ≧600 mg/dL.

For the next assay, the system named is CTLA4KD/BDC2.5/NOD mice. Briefly: Autoimmune diabetes in CTLA4KD/BDC2.5/NOD mice. The class given is in vivo, mouse. The procedure:
CTLA4 KD/NOD mice (Chen, et al., PNAS (2006)) were bred with BDC2.5 TCR transgenic mice (Katz, et al., Cell, 74(6):1089-100 (1993)). Both female and male mice at age of 11 weeks were randomly assigned into experimental groups: vehicle (3 mice), and B7-H4-Ig (5 mice). Mice were treated with B7-H4-Ig 3 times per week for 4 weeks (15 mg/kg, per i.p. injection), and monitored 3 times per week for glucose content in the urine first with Diastix. […] Diabetes was determined when blood glucose reached ≧600 mg/dL.

The test system of the next assay is CD4^+CD25^− T cells. Briefly: Enteroantigen specific CD4+CD25- proliferation assay with cells from treated mice. The assay is classed as in vivo, mouse. The note with it: Balb/c mice. The procedure: Extracts were prepared by removing the colon and cecum from mice and placing the content in PBS. This was sonicated 3 times for 30 seconds on ice, followed by centrifugation at 10,000 g for 10 min to remove insoluble material. The supernatant was collected, sterile filtered, and stored at −60° C. The protein concentration in the supernatants was typically 1 to 1.5 mg/mL as determined by the bicinchoninic acid (BCA) method.
Female wild-type Balb/c, 7 to 9 weeks of age, were injected with either 60 μg or 300 μg of B7-H4-Ig, intraperitoneally (IP), 3 times a week for 2 weeks. There were 5 mice in each group. B7-H4-Ig treated mice and also naïve control mice were euthanized for T cell isolation after 2 week treatment.
The CD4^+CD25^− T cells were obtained as follows: CD4^+ T cells were positively selected from spleen single-cell suspensions using a mouse anti-CD4 monoclonal antibody-coated DYNABEAD® and the DETACHABEAD® system (Dynal AS, Oslo, Norway) according to the manufacturer's instructions. Then the CD4^+ T cells ([…] assessed by flow cytometry) were separated into CD25^+ and CD25^− T cell populations by Miltenyi's magnetic bead technology (MACS®, Miltenyi Biotech, Belgisch Gladbach, Germany) using PE-labeled anti-CD25 monoclonal antibody, followed by the addition of anti-PE microbeads and depletion according to the manufacturer's instructions. […]

Assay [2] concerns mRNAs associated with Th17 cells, Tregs, autoimmune disorders and inflammation. Briefly: Quantitative RT-PCR of mouse naïve T cells under Th17 differentiation cocktail. The note with it: 1 μg/mL, vs isotype control (Table 13, FIG. 54). The assay is classed as cell-based. The procedure: CD4^+CD62L^+ naïve T cells were isolated from BALB/c mice as in the above examples, and activated by anti-CD3 and anti-CD28 bound beads in the presence of Th17 differntiation cocktail (TGF-β1 (10 ng/mL), IL-6 (50 ng/mL), IL-23 (4 ng/mL), anti-IL-4 (10 μg/mL), anti-IFN-γ (5 μg/mL) and anti-IL-2 (5 μg/mL)). Cells were incubated with either B7-H4-Ig (two different lots—#22 and #23—at 1 μg/mL) or isotype control. RNA was isolated from the cells and used for quantitative RT-PCR to test the expression levels of a large number of mRNAs associated with Th17 cells, Tregs, autoimmune disorders and inflammation (SA Biosciences mouse Th17 panel).

With “B7-H4-Ig: B7-H4 extracellular domain fused to Ig Fc; bare label is the human protein in Example 3, murine protein in Examples 1, 2, 5, 7-11”, the overall arthritis scores result in the assay on DBA/1J mice is “significantly lower than the ones of vehicle injected CIA mice”. Further, in assay [1] (plasma day 33, vs vehicle control (FIG. 17A)), the “plasma TNFα production” value is given as “significantly reduced”. Moreover, in assay [1] (plasma day 33, vs vehicle control (FIG. 17B)), the “plasma IL6 production” value was “significantly reduced”. Besides, the “plasma MCP-1 production” value in assay [1] (plasma day 33, vs vehicle control (FIG. 17C)) is “significantly reduced”. Besides, the “diabetes development (blood glucose ≧600 mg/dL)” value in the assay with CTLA4 KD/NOD mice is listed as “did not develop diabetes”. Also, the “autoimmune diabetes (blood glucose ≧600 mg/dL)” value with CTLA4KD/BDC2.5/NOD mice (15 mg/kg i.p. 3 times per week for 4 weeks from age 11 weeks (FIG. 50)) was “delayed autoimmune diabetes”. For the same substance, the “age until which treated mice did not develop diabetes” value in the assay with CTLA4KD/BDC2.5/NOD mice (15 mg/kg i.p. 3 times per week for 4 weeks from age 11 weeks, 10 weeks post treatment) is given as 21 weeks old. In the assay with CD4^+CD25^− T cells (60 μg or 300 μg IP 3 times a week for 2 weeks (FIG. 52)), the “enteroantigen specific CD4+CD25− T effector cell response” value is “barely affected”. Besides, the “Tregs from treated mice: blocking of enteroantigen priming and T cell proliferation” value with CD4^+CD25^− T cells (60 μg or 300 μg IP 3 times a week for 2 weeks, vs Tregs from control mice (FIG. 51)) is “more potent in blocking enteroantigen priming and T cell proliferation”. The “expression of mRNA involved in Th17 cell differentiation (RORc, IL-17A, IL-17F, IL-21, IL-22)” value in assay [2] is reported as “downregulates the expression of mRNA involved in Th17 cell differentiation”.
